# Measurements taken from patent publication US20240092758A1, “IMIDAZOLO INDAZOLE COMPOUNDS AS JAK INHIBITORS” (Theravance Biopharma R&D IP, LLC, priority 2021, published 2024).
# Columns and labels:
# [1] = target: JAK2 (Homo sapiens (Human), UniProt O60674); test: Biochemical JAK kinase assay (LanthaScreen), JAK2; settings: for Ki: read-out: JAK2 pKi (converted)
# Protocol: (§1) A panel of four LanthaScreen JAK biochemical assays (JAK1, 2, 3 and Tyk2) were carried in a common kinase reaction buffer (50 mM HEPES, pH 7.5, 0.01% Brij-35, 10 mM MgCl2, and 1 mM EGTA). Recombinant GST-tagged JAK enzymes and a GFP-tagged STAT1 peptide substrate were obtained from Life Technologies.
# (§2) Serially diluted compounds were pre-incubated with each of the four JAK enzymes and the substrate in white 384-well microplates (Corning) at ambient temperature for 1 h. ATP was subsequently added to initiate the kinase reactions in 10 μL total volume, with 1% DMSO. The final enzyme concentrations for JAK1, 2, 3 and Tyk2 are 4.2 nM, 0.1 nM, 1 nM, and 0.25 nM respectively; the corresponding Km ATP concentrations used are 25 μM, 3 μM, 1.6 μM, and 10 μM; while the substrate concentration is 200 nM for all four assays. Kinase reactions were allowed to proceed for 1 hour at ambient temperature before a 10 μL preparation of EDTA (10 mM final concentration) and Tb-anti-pSTAT1 (pTyr701) antibody (Life Technologies, 2 nM final concentration) in TR-FRET dilution buffer (Life Technologies) was added. The plates were allowed to incubate at ambient temperature for 1 h before being read on the EnVision reader (Perkin Elmer). Emission ratio signals (520 nm/495 nm) were recorded and utilized to calculate the percent inhibition values based on DMSO and background controls.
# (§3) For dose-response analysis, percent inhibition data were plotted vs. compound concentrations, and IC50 values were determined from a 4-parameter robust fit model with the Prism software (GraphPad Software). Results were expressed as pIC50 (negative logarithm of IC50) and subsequently converted to pKi (negative logarithm of dissociation constant, Ki) using the Cheng-Prusoff equation.
# (§4) Test compounds having a lower Ki value or higher pKi value in the four JAK assays show greater inhibition of JAK activity.
# [2] = target: JAK1 (Homo sapiens (Human), UniProt P23458); test: Biochemical JAK kinase assay (LanthaScreen), JAK1; settings: for Ki: read-out: JAK1 pKi (converted)
# Sequence of JAK1 (P23458 whole entry): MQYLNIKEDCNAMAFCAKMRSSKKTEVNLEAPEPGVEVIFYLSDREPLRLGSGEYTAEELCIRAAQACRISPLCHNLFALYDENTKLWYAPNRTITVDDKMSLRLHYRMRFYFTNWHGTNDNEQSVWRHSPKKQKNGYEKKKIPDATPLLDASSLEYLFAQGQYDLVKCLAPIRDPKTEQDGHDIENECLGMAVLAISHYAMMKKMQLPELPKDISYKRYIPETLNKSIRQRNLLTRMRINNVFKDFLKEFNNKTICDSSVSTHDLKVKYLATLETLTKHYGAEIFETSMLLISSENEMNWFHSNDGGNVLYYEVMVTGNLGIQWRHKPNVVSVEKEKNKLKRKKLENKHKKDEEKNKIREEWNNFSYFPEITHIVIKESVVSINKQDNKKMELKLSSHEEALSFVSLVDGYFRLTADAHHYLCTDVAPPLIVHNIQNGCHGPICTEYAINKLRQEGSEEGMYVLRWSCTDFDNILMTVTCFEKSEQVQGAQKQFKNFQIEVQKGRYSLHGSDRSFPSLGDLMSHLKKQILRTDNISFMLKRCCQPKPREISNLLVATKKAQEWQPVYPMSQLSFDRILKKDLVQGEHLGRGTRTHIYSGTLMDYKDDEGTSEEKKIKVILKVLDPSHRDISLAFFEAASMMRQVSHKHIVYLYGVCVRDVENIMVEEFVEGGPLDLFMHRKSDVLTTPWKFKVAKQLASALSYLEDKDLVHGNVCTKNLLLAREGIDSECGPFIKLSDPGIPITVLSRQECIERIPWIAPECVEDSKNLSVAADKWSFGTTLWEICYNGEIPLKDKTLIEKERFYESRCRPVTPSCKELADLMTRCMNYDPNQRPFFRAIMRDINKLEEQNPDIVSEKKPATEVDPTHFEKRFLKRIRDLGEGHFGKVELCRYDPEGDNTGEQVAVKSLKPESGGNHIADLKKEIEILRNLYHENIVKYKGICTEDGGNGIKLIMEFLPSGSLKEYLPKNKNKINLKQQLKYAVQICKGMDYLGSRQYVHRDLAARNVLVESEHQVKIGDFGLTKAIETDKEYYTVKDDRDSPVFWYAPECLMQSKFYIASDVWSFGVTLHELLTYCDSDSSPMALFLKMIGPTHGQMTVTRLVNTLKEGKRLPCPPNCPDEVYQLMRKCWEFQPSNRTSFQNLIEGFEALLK
# Protocol: as §1, §2, §3, §4
# [3] = system: IL-13 induced STAT6 phosphorylation in BEAS-2B human lung epithelial cells; test: Cellular JAKI potency assay (BEAS-2B); format: cell-based; settings: Homo sapiens, BEAS-2B, BEAS-2B cells, read-out: BEAS2B pIC50 (converted)
# Protocol: The JAKI cellular potency assay was carried out by measuring inhibition of interleukin-13 (IL-13, R&D Systems) induced STAT6 phosphorylation in BEAS-2B human lung epithelial cells (ATCC). BEAS-2B cells were grown at 37° C. in a 5% CO2 humidified incubator in 50% DMEM/50% F-12 medium (Life Technologies) supplemented with 10% FBS (Hyclone), 100 U/mL penicillin, 100 μg/mL streptomycin (Life Technologies), and 2 mM GlutaMAX (Life Technologies). On day 1 of the assay, cells were seeded at a 7,500 cells/well density in white poly-D-lysine-coated 384-well plates (Corning) with 25 μL medium and were allowed to adhere overnight in the incubator. On day 2 of the assay, the medium was removed and replaced with 12 μL of assay buffer (Hank's Balanced Salt Solution/HBSS, 25 mM HEPES, and 1 mg/ml bovine serum albumin/BSA) containing dose-responses of test compounds. Compounds were serially diluted in DMSO and then diluted another 1000-fold in media to bring the final DMSO concentration to 0.1%. Cells were incubated with test compounds at 37° C. for 1 h and followed by the addition of 12 μl of pre-warmed IL-13 (80 ng/mL in assay buffer) for stimulation. After incubating at 37° C. for 30 min, the assay buffer (containing compound and IL-13) was removed, and 10 μL of cell lysis buffer (25 mM HEPES, 0.1% SDS, 1% NP-40, 5 mM MgCl2, 1.3 mM EDTA, 1 mM EGTA, supplemented with Complete Ultra mini protease inhibitors and PhosSTOP from Roche Diagnostics). The plates were shaken at ambient temperature for 30 min before the addition of detection reagents. Levels of pSTAT6 were measured using the AlphaLISA SureFire Ultra pSTAT6 (Tyr641) assay kit from PerkinElmer. For dose-response analysis, percent inhibition data were plotted vs. compound concentrations, and IC50 values were determined from a 4-parameter robust fit model with the Graphpad Prism software. Results are expressed as the negative logarithm of the IC50 value, pIC50.
# Test compounds having a lower IC50 value or higher pIC50 value in this assay show greater inhibition of IL-13 induced STAT6 phosphorylation.
# Sequence of JAK2 (O60674 whole entry): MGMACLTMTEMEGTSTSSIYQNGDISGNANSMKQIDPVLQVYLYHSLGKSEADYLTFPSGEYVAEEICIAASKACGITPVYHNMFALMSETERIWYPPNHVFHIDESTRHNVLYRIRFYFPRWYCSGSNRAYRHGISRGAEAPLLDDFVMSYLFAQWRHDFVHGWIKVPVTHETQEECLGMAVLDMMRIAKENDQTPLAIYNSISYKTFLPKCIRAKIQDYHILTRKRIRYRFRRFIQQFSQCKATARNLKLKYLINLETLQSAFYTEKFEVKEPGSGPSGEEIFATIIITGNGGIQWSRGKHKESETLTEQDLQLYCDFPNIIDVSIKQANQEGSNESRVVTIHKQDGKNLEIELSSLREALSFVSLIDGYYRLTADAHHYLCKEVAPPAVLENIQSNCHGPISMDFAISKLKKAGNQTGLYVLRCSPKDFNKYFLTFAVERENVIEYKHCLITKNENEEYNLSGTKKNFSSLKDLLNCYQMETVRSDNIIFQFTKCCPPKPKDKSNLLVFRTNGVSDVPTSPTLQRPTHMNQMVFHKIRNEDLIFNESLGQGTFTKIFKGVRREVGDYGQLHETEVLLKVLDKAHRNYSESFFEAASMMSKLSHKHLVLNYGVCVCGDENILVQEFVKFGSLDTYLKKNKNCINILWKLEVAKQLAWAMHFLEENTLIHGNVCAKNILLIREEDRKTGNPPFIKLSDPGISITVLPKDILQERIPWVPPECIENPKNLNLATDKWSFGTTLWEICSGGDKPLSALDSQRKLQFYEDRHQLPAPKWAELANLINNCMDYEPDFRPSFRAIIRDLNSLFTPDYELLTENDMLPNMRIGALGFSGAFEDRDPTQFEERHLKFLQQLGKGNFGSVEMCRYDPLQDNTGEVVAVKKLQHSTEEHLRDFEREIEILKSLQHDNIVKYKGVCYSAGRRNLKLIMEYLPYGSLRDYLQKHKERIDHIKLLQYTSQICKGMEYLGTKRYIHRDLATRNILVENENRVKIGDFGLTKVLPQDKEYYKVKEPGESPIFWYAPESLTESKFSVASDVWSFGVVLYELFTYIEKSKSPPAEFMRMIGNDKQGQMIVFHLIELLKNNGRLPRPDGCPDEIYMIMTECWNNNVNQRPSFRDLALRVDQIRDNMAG
Compound,JAK2 pKi [1],Ki [2] [nM],IC50 [3] [nM],JAK1 pKi [2],Ki [1] [nM]
CCc1cc(O)ccc1-c1ccc2c(-c3nc(C4=C[C@H]([C@H](C)O)NC4)c[nH]3)n[nH]c2c1F [Example 310],A (A represents a pKi value ≥10 (Ki≤0.1 nM)),0.1 to 1,10 to 31.6,–,–
CCc1cc(O)ccc1-c1ccc2c(-c3nc(C4=C[C@H](CO)N(CCC(C)(C)O)C4)c[nH]3)n[nH]c2c1F [Example 329],A (A represents a pKi value ≥10 (Ki≤0.1 nM)),–,10 to 31.6,A (A represents a pKi value ≥10 (Ki≤0.1 nM)),–
CCc1cc(O)ccc1-c1ccc2c(-c3nc(C4=CCN(C[C@@H](C)CO)C4)c[nH]3)n[nH]c2c1F [Example 318],–,0.1 to 1,10 to 31.6,–,0.1 to 1
CCc1cc(O)ccc1-c1ccc2c(-c3nc(C4=C[C@H](C(=O)OC)NC4)c[nH]3)n[nH]c2c1F [Example 250],–,0.1 to 1,31.6 to 100,–,0.1 to 1
CCc1cc(O)ccc1-c1ccc2c(-c3nc(C4=CCN(C[C@@H]5COCCN5)C4)c[nH]3)n[nH]c2c1 [Example 200],A (A represents a pKi value ≥10 (Ki≤0.1 nM)),0.1 to 1,10 to 31.6,–,–
CCc1cc(O)ccc1-c1ccc2c(-c3nc(C4=CC[C@H](C)N(CCN5CCCC5=O)C4)c[nH]3)n[nH]c2c1F [Example 271],–,0.1 to 1,10 to 31.6,–,0.1 to 1
CCc1cc(O)ccc1-c1ccc2c(-c3nc(C4=CCN([C@H]5CC[C@](C)(O)CC5)C4)c[nH]3)n[nH]c2c1F [Example 330],–,–,10 to 31.6,A (A represents a pKi value ≥10 (Ki≤0.1 nM)),0.1 to 1
CCc1cc(O)ccc1-c1ccc2c(-c3nc(C4=C[C@H](CO)N(C5COC5)C4)c[nH]3)n[nH]c2c1F [Example 273],A (A represents a pKi value ≥10 (Ki≤0.1 nM)),0.1 to 1,10 to 31.6,–,–
CCc1cc(O)ccc1-c1ccc2c(-c3nc(C4=CCN(CC5CNC(=O)O5)CC4)c[nH]3)n[nH]c2c1F (stereo not drawn) [Example 123],–,0.1 to 1,31.6 to 100,–,0.1 to 1
CCc1cc(O)ccc1-c1ccc2c(-c3nc(C4=CCN(CCC(C)(C)O)C4)c[nH]3)n[nH]c2c1F [Example 55],A (A represents a pKi value ≥10 (Ki≤0.1 nM)),–,3.16 to 10,A (A represents a pKi value ≥10 (Ki≤0.1 nM)),–
CCc1cc(O)ccc1-c1ccc2c(-c3nc(C4=CCN(CCNS(C)(=O)=O)C4)c[nH]3)n[nH]c2c1 [Example 113],A (A represents a pKi value ≥10 (Ki≤0.1 nM)),0.1 to 1,10 to 31.6,–,–
CCc1cc(O)ccc1-c1ccc2c(-c3nc(C4=CCN(CCS(=O)(=O)NC)C4)c[nH]3)n[nH]c2c1F [Example 393],–,0.1 to 1,100 to 316,–,0.1 to 1
CCc1cc(O)ccc1-c1ccc2c(-c3nc(C4=CCN(CCN5CCNC5=O)CC4)c[nH]3)n[nH]c2c1 [Example 118],A (A represents a pKi value ≥10 (Ki≤0.1 nM)),–,31.6 to 100,A (A represents a pKi value ≥10 (Ki≤0.1 nM)),–
CCc1cc(O)ccc1-c1ccc2c(-c3nc(C4=CCN(C5CCC(O)CC5)CC4)c[nH]3)n[nH]c2c1F (stereo not drawn) [Example 121],A (A represents a pKi value ≥10 (Ki≤0.1 nM)),0.1 to 1,10 to 31.6,–,–
CCc1cc(O)ccc1-c1ccc2c(-c3nc(C4=C(C(=O)N(C)C)CNCC4)c[nH]3)n[nH]c2c1F [Example 379],A (A represents a pKi value ≥10 (Ki≤0.1 nM)),0.1 to 1,31.6 to 100,–,–
CCc1cc(O)ccc1-c1ccc2c(-c3nc(C4=CCN(C5CCOCC5)C4)c[nH]3)n[nH]c2c1 [Example 72],A (A represents a pKi value ≥10 (Ki≤0.1 nM)),–,3.16 to 10,A (A represents a pKi value ≥10 (Ki≤0.1 nM)),–
CCc1cc(O)ccc1-c1ccc2c(-c3nc(C4=CCN(CC5CCCO5)CC4)c[nH]3)n[nH]c2c1F (stereo not drawn) [Example 62],A (A represents a pKi value ≥10 (Ki≤0.1 nM)),0.1 to 1,10 to 31.6,–,–

Compound,JAK2 pKi [1],Ki [2] [nM],IC50 [3] [nM],JAK1 pKi [2],Ki [1] [nM]
CCc1cc(O)ccc1-c1ccc2c(-c3nc(C4=CC[C@H](C)N(CCS(=O)(=O)NC)C4)c[nH]3)n[nH]c2c1F [Example 277],–,1 to 10,31.6 to 100,–,0.1 to 1
CCc1cc(O)ccc1-c1ccc2c(-c3nc(C4=C[C@H](CO)N(Cc5cnoc5)C4)c[nH]3)n[nH]c2c1F [Example 355],–,0.1 to 1,31.6 to 100,–,0.1 to 1
CCc1cc(O)ccc1-c1ccc2c(-c3nc(C4=CCN(Cc5c[nH]nn5)C4)c[nH]3)n[nH]c2c1F [Example 146],–,0.1 to 1,10 to 31.6,–,0.1 to 1
CCc1cc(O)ccc1-c1ccc2c(-c3nc(C4=CCN(C5CCNC5=O)CC4)c[nH]3)n[nH]c2c1F (stereo not drawn) [Example 84],–,0.1 to 1,31.6 to 100,–,0.1 to 1
CCc1cc(O)ccc1-c1ccc2c(-c3nc(C4=CCNC5(CC5)C4)c[nH]3)n[nH]c2c1F [Example 352],–,0.1 to 1,31.6 to 100,–,0.1 to 1
CCc1cc(O)ccc1-c1ccc2c(-c3nc(C4=CCNCC4C)c[nH]3)n[nH]c2c1F (stereo not drawn) [Example 324],–,0.1 to 1,10 to 31.6,–,0.1 to 1
CCc1cc(O)ccc1-c1ccc2c(-c3nc(C4=CCN(CCS(=O)(=O)NC)C4)c[nH]3)n[nH]c2c1 [Example 96],A (A represents a pKi value ≥10 (Ki≤0.1 nM)),0.1 to 1,10 to 31.6,–,–
CCOC(=O)C1=C(c2c[nH]c(-c3n[nH]c4c(F)c(-c5ccc(O)cc5CC)ccc34)n2)CCNC1 [Example 323],–,0.1 to 1,10 to 31.6,–,0.1 to 1
CCc1cc(O)ccc1-c1ccc2c(-c3nc(C4=CCN(C5CCC(CO)CC5)C4)c[nH]3)n[nH]c2c1F (stereo not drawn) [Example 331],–,–,10 to 31.6,A (A represents a pKi value ≥10 (Ki≤0.1 nM)),0.1 to 1
CCc1cc(O)ccc1-c1ccc2c(-c3nc(C4=CCCN(C(C)C)C4)c[nH]3)n[nH]c2c1 [Example 28],–,0.1 to 1,3.16 to 10,–,0.1 to 1
CCc1cc(O)ccc1-c1ccc2c(-c3nc(C4=CCN(CCNC(=O)C(C)C)CC4)c[nH]3)n[nH]c2c1 [Example 102],A (A represents a pKi value ≥10 (Ki≤0.1 nM)),–,3.16 to 10,A (A represents a pKi value ≥10 (Ki≤0.1 nM)),–
CCc1cc(O)ccc1-c1ccc2c(-c3nc(C4=CCCN(C(=O)CN)C4)c[nH]3)n[nH]c2c1 [Example 164],–,0.1 to 1,10 to 31.6,–,0.1 to 1
CCc1cc(O)ccc1-c1ccc2c(-c3nc(C4=CCCN(CCNC(=O)C(C)C)C4)c[nH]3)n[nH]c2c1 [Example 110],–,0.1 to 1,10 to 31.6,–,0.1 to 1
CCc1cc(O)ccc1-c1ccc2c(-c3nc(C4=CCN(CCCO)C4)c[nH]3)n[nH]c2c1 [Example 297],–,0.1 to 1,10 to 31.6,–,0.1 to 1
CCc1cc(O)ccc1-c1ccc2c(-c3nc(C4=CCN(CCN5CCCC5=O)CC4)c[nH]3)n[nH]c2c1F [Example 119],–,0.1 to 1,10 to 31.6,–,0.1 to 1
CCc1cc(O)ccc1-c1ccc2c(-c3nc(C4=C[C@H](CO)NC4)c[nH]3)n[nH]c2c1 [Example 239],–,0.1 to 1,31.6 to 100,–,0.1 to 1
